Assay results: patent publication US5986131A, “RXR selective ligands” (Hoffmann-La Roche Inc., priority 1997, dated 1999)

What was measured:
RAR β [1] = target: T1, RAR β (Homo sapiens, UniProt P10826); experiment: RARβ activation (transactivation); assay type: cell-based; conditions: Table 6
T1 sequence (P10826 1-455): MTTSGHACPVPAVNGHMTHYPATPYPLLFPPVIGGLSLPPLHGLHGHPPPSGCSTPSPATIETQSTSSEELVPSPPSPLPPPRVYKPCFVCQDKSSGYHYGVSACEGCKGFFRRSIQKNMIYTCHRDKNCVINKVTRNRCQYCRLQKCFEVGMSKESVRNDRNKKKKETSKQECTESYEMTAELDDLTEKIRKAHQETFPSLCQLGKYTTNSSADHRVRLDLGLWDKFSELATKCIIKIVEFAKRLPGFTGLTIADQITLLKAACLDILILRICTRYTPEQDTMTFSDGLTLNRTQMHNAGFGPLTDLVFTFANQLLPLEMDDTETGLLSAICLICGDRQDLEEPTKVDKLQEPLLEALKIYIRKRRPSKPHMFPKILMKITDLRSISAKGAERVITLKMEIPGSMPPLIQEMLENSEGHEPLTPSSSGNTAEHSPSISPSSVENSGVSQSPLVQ
Text: (§1) Methods for determining the binding and transactivation properties of retinoids with regard to the RAR receptors and RXR receptors are known in the art, e.g., Levin et al., Nature, 355:359-361 (Jan. 23, 1992); Allenby et al., Proc. Natl. Acad. Sci. USA, 90:30-34 (January, 1993); Allenby et al., J. Biol. Chem., 269:16689-16695 (Jun. 17, 1994). Methods essentially as described in those publications were used to determine the binding and transactivation properties of retinoids reported in the Examples herein.
(§2) Retinoid receptor binding and transactivation assays were performed on Compound B and Example 6 as described above.

T47-D = T47-D breast carcinoma cell growth inhibition (MTT), combination; assay type: cell-based, human; conditions: Compound B plus constant concentration of Example 6; FIG. 7
Protocol: The compound of Example 6 was tested for its ability to inhibit a human breast carcinoma cell line in combination with a retinoid having RARα activity, all-E-3,7-dimethyl-9-[(2-methoxy-4-methyl-6-octyloxy)phenyl]-2,4,6,8-nonatetraenoic acid (Compound B), as shown: [drawing 7]
Breast carcinoma cell line, T47-D, obtained from the ATCC [Accession No. HTB133] was grown in RPMI 1640 media supplemented with 10% FBS, 10 μg/ml insulin and 13 ng/ml gentamicin, and incubated at 37° C., 4.5% CO2 and 95.5% humidified air. The cells were harvested upon reaching 70-80% confluency and pelleted. The cells were resuspended in the media and seeded (150 μl/well) into 96-well plates (Corning) at a density allowing linear growth over a seven day assay period (i.e., T47-D seeded at 4×10^3 cells/well). […]
Liquid was removed by aspiration, 50 μl 95% ethanol was added, and the plates were shaken (Mini-Orbital Shaker, Bellco) for 15 minutes to solubilize the formazan product. The optical density of each well was measured using an automatic plate reader (Microplate EL320 Reader, Bio-Tek Instruments) with a test wavelength of 570 nm and a reference wavelength of 660 nm. The amount of cell growth inhibition caused by various concentrations of Compound B in combination with a constant concentration of the compound of Example 6 was determined in accordance with the following equation: [formula]

RAR γ [2] = target: T2, RAR γ (Homo sapiens, UniProt P13631); experiment: RARγ activation (transactivation); assay type: cell-based; conditions: Table 6; @ 1000 nM; read-out: RAR Activation % max (γ)
T2 sequence (P13631 1-454): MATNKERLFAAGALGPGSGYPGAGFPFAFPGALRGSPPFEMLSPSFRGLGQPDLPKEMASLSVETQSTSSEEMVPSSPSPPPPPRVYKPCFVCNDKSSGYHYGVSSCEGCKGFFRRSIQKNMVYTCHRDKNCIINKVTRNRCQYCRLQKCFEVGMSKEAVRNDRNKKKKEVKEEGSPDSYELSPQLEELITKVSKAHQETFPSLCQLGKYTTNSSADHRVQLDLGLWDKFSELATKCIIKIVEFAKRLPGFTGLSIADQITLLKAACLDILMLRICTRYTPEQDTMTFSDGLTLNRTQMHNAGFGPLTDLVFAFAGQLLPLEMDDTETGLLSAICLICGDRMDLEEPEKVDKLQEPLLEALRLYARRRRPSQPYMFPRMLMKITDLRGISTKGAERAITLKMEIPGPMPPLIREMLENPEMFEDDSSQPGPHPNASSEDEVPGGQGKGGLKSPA
Text: as §1, §2

RARα [3] = target: T3, RARα (Homo sapiens, UniProt P10276); experiment: RARα activation (transactivation); assay type: cell-based; conditions: Table 6
T3 sequence (P10276 1-462): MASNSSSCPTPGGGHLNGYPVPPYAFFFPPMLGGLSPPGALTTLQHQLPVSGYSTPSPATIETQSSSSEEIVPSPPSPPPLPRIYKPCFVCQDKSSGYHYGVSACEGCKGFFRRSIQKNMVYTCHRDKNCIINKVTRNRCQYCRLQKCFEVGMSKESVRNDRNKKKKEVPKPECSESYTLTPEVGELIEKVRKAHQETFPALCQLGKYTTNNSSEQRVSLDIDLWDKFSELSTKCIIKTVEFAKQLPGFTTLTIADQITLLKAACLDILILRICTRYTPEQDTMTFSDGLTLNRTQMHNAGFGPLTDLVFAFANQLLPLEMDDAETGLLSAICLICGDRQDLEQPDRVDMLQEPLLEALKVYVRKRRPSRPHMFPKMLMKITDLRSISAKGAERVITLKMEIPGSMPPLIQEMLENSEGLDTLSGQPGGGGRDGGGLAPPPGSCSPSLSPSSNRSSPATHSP
Text: (§3) Methods essentially as described in those publications were used to determine the binding and transactivation properties of retinoids reported in the Examples herein.

RAR γ [4] = target: T2, RAR γ; experiment: RARγ binding; conditions: Table 6
Text: as §1, §2

RXRα = target: T4, RXRα (Homo sapiens, UniProt P19793); experiment: RXRα activation (transactivation); assay type: cell-based; conditions: Table 6; @ 1000 nM; read-out: RXR Activation % max (α)
T4 sequence (P19793 1-462): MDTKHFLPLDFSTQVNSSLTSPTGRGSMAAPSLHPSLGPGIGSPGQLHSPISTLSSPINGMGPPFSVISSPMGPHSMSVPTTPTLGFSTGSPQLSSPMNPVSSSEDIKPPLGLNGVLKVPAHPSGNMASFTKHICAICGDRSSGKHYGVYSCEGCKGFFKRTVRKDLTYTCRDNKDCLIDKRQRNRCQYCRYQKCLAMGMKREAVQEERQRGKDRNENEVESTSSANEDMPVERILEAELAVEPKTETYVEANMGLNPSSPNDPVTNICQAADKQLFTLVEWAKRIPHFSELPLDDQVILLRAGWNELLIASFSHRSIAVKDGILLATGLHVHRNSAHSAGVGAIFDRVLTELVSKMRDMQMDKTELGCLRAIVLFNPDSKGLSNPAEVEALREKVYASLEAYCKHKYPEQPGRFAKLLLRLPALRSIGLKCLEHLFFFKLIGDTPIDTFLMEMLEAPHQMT
Text: as §3

RAR β [5] = target: T1, RAR β; experiment: RARβ binding; conditions: Table 6
Text: as §1, §2

RARα [6] = target: T3, RARα; experiment: RARα binding; conditions: Table 6; read-out: RAR Binding IC50 (α)
Text: as §3

How did the Emax at 1 µM (RAR β [1]; @ 1000 nM, read-out: RAR Activation % max (β)) turn out when `CC1=C(/C=C/C2=C(/C=C/C(C)=C/C(=O)O)CCCCC2)C(C)(C)CCC1` [Example 6, (2E,4E)-3-Methyl-5-(2-((E)-2(2,6,6-trimethyl-1-cyclohexen-1-yl)ethenyl)-1-cyclohepten-1-yl)-2,4-pentadienoic acid] was run?
The Emax at 1 µM was 8%.

What about the “antiproliferative activity in breast cancer cell line in combination (potentiation of Compound B)” value (T47-D) of the same compound?
The value was “Enhanced antiproliferative activity”.

And the Emax at 1 µM (RAR γ [2])?
The Emax at 1 µM was 9%.

And the Emax at 1 µM (RARα [3]; @ 1000 nM, read-out: RAR Activation % max (α))?
The Emax at 1 µM was 4%.

For `CCCCCCCCOc1cc(C)cc(OC)c1/C=C/C(C)=C/C=C/C(C)=C/C(=O)O` [Compound B, all-E-3,7-dimethyl-9-[(2-methoxy-4-methyl-6-octyloxy)phenyl]-2,4,6,8-nonatetraenoic acid], which IC50 (RAR γ [4]) is on record?
Its IC50 is greater than 10 µM.

And the EC50 (RAR β [1])?
The EC50 was 5.3 nM.

What about the Emax at 1 µM (RXRα) of the same compound?
The Emax at 1 µM was 0%.

What about the IC50 (RAR β [5]) of the same compound?
Its IC50 is 500 nM.

What about the IC50 (RARα [6]) of the same compound?
The IC50 was 240 nM.

And the Emax at 1 µM (RAR γ [2])?
Its Emax at 1 µM is 48%.

And the EC50 (RARα [3]; read-out: RAR Activation EC50 (α))?
The EC50 was 11 nM.
